Square brackets hold non-standard residues; d marks the D form.
Key:
human Aβ1-42 [1] = molecular target: T1, human Aβ1-42 (Homo sapiens, UniProt P05067); test: DCF fluorescence assay of H2O2 production (SOD-like activity) by human Aβ1-42; type: biochemical; details: 200 nM peptide, Aβ1-42 200 nM
Description: The three candidate peptides (15merTNP, 6merPLP and 6merMTM) were examined to determine whether they could attenuate Aβ's SOD-like activity in vitro. A DCF fluorescence assay was used to assess the efficacy of these peptides on altering the production of physiological (brain) concentrations (200 nM) of human Aβ1-42.
Aβ species were prepared and the assay run as described previously (i.e. Aβ1-42 at 200 nM and Copper and Dopamine concentrations remain unchanged). Peptide analogue MP2 (SEQ ID NO:2) was added to Aβ1-42+Cu solutions at ratios ranging from 0.005:1 to 10.0:1 (i.e. a ration of 0.005:1 would contain 1 nM of respective peptide). The peptide was dissolved in PBS pH7.5. The effect of MP2 on H2O2 production by human Aβ1-42 was determined in triplicate in three separate experiments (i.e. n=9) for doses ranging from 100 to 2000 nM (FIG. 1). These were compared against the level of H2O2 produced by human Aβ1-42 [test peptide analogue MP2+positive control peptide 15merTNP; three experiments done in triplicate, […]]. All data are presented as means±SEM.
For all assays run, the 15merTNP peptide (SEQ ID NO: 3), was included as a positive control for the assay and for comparing its activity with that of the modelled peptide analogue MP2. The effect of 15merTNP (200 nM) on H2O2 production by human Aβ1-42, was determined in triplicate in each of the 12 DCF assays (i.e. n=36) performed in this study.

M17 Neuroblastoma cells = test: MTS cell viability assay, cell death induced by human Aβ1-42 (40 μM); type: cell-based; details: for reduction of cell death associated with human Aβ1-42: Aβ1-42 40 μM
Description: M17 Neuroblastoma cells were seeded in a 48 well plate at a density of 50,000 cells per well. The plate was incubated for 24 hours at 37° C. in media (OPTI-MEM) containing 10% FCS. The next day the cells were treated with human Aβ1-42 (40 μM) in the presence or absence of the peptides 15merTNP or peptide analogue MP2 (FIG. 2). The peptides were provided at concentrations ranging from 20-400 μM prepared in Neuro basal media containing B27 supplement without antioxidants. Following incubation (4 days at 37° C.), cell viability was assessed using the CellTiter 96® AQueous One Solution cell proliferation assay (MTS; Promega, Wis., USA) as per manufactures instructions. Briefly, 200 μl of MTS reagent (1/10 dilution) was added directly to the culture wells and the plate incubated for 3 hours at 37° C. Following incubation, 150 μl of the solution was transferred to a 96 well plate and the absorbance is determined spectrophotometrically at 490 nm.
Similar to the MTT assay, the MTS assay is a colorimetric method for determining the number of viable cells in proliferation or cytotoxicity assays. The principle of the MTS assay is the same as the MTT assay, except for the tetrazolium compound that is bio-reduced by the mitochondria of the cells, forming a coloured formazan product that is soluble (rather than insoluble for the MTT assay) in tissue culture medium. This conversion is accomplished by NADPH or NADH produced by dehydrogenase enzymes in metabolically active cells: Berridge M V. And Tan A. S. (1993) Characterisation of the cellular reduction of 3-(4,5-dimethylthiazol-2-yl)-2,5-diphenyltetrazolium bromide (MTT): Subcellular localisation, substrate dependence and involvement of mitochondrial electron transport in MTT reduction. Arch. Biochem. Biophys. 303, 474-82.
The effect of human Aβ1-42 (40 μM) on cell viability was determined in triplicate in each of the 10 MTS assays (i.e. n=30) performed in this study. All data are presented as means±SEM.
The effect of peptide analogue MP2 to protect against human Aβ42-induced toxicity was then determined using the MTS assay in triplicate in two separate experiments for all doses (i.e. n=6), unless otherwise specified. The effectiveness of MP2 was compared against the 15merTNP.

[2] = In vitro peptide stability in 10% rodent brain homogenate; type: in vitro ADME, rat; details: 10% brain homogenate, 37° C.
Description: For the peptide stability assay in vitro, both 15merTNP and peptide analogue MP2 were incubated separately with fresh 10% rodent brain homogenate to model degradation in tissues. In order to create a physiological dose of peptide in the in vitro assay, both radioactive (^3H-labelled; hot) and non-radioactive (cold) peptides were combined in a set ratio. Cold peptide was added at a dose of […] per ml of 10% brain homogenate. Hot peptide was added at a dose of 250 μCi per ml 10% brain homogenate. Following the addition of hot and cold peptide; the homogenate was vortexed and incubated for different time points. The reaction was stopped by adding complete protease inhibitor cocktail and the samples analysed.
The biological stability of the peptides was evaluated by incubating them (90 nmol) in fresh 10% rodent brain homogenate for different times at 37° C. The amount of intact peptide was estimated by running the supernatant of the homogenate on a 16% Tricine gel to separate peptide that had not had its amino acid sequence degraded. FIG. 3 illustrates the relative stability of 15merTNP and peptide analogue MP2 over two hours run on a 16% Tricine gel from time 0-120 min with samples run in duplicate. The values correspond to the in vitro half-life, which is defined as the time needed for 50% degradation of the peptide.

[3] = parameters: species or system mice (129×1 strain); details: mouse, in vivo
Description: Another essential requirement of drug development is the ability of the peptide to cross the BBB and impact on targeted tissue. To measure the ability of 15merTNP and peptide analogue MP2 to cross the BBB, intracerebroventricular (i.c.v) delivery was assessed. The use of i.c.v injections on animal models allows for high doses to be delivered straight to the ventricular spaces where it can cross the parenchyma layer to the brain matter.
For i.c.v injections, control mice (129×1 strain) were anesthetized with intraperitoneal ketamine/xylazine at a dose of 10 ml/kg and then administered with 200 μg of either peptide (90 nmol). Both radioactive (^3H-labelled; hot) and non-radioactive (cold) was used to allow physiological doses of peptide to be delivered.
To determine whether the peptides had effectively penetrated into the brain parenchyma, a capillary depletion experiment was performed. After 25 min post injection the animal was sacrificed and the brain removed. This was homogenized and centrifuged for 10 min at 13000 rpm at 4° C. resulting in a supernatant containing predominately radioactivity from the cortex and a pellet with radioactivity from the capillaries and endothelium. A comparison of radioactivity in each sample was conducted to assess percentage of peptide movement into the cortex. The amount of radioactivity in the capillary pellet of mice that were perfused and not perfused with saline solution was compared to determine the percentage of peptide bound to the luminal surface of the capillaries and sequestered by brain endothelial cells.
A detailed necropsy was performed on each animal following perfusion to thoroughly assess peptide movement throughout peripheral organs, central nervous tissue and blood. […] Thus the concentration of labelled tritium could be measured per mass of sample and using this and the known ratio of non-labelled peptide present, the concentration of total peptide could be determined.
The pharmacokinetic profile of peptide analogue MP2 over four time points, post i.c.v injection into the CNS was determined. […]

human Aβ1-42 [4] = molecular target: T1, human Aβ1-42; details: DCF fluorescence assay, 200 nM human Aβ1-42; earlier work PCT/AU02/01754; cited from earlier work
human Aβ42 = test: MTS cell viability assay of MP2 analogues, cells treated with human Aβ42 (20 μM); type: cell-based; details: peptide 400 μM
Description: FIG. 7 illustrates the effect of various peptide analogues of the peptide analogue of SEQ ID NO:2 on cell viability associated with human Aβ1-42. Cells were treated with human Aβ42 peptide (20 μM) in the absence or presence of increasing doses of MP2, MP4, MP5 or MP6 (n=6, for each peptide). Cell viability was assessed by the MTS assay.
Cells were treated with human Aβ42 peptide (20 μM) in the absence or presence of increasing doses of MP2, MP4, MP5 or MP6 (n=6, for each peptide). Cell viability was assessed by the MTS assay.

Aβ = Aβ (Homo sapiens, UniProt P05067); test: Copper-induced Aβ oligomer generation (SDS-PAGE, WO2 immunoblot); type: biochemical; details: Aβ 5 uM, Cu+2 25 μM, 0-1000 μM peptide, 37 C, 24 hours; vs reverse peptide control
Aβ, sequence (P05067 672-713 limits assumed): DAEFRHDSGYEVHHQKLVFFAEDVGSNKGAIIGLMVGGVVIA
Description: Incubation of Aβ with copper generates cross-linked oligomeric species (Atwood et al., 2000: Cell Mol Biol, 46: 777-783; Atwood et al., 2004: Biochemistry, 43: 560-568). In this experiment, Aβ (5 uM) is incubated with Cu+2 (25 μM) and 0-1000 μM of the modified peptides at 37 C for 24 hours. After the incubation period, 20 ng is loaded onto an SDS-PAGE gel and immunoblotted with WO2 antibody. Compared to the reverse peptide control, all the modified peptides inhibited the generation of Aβ oligomers at various concentration.

T1 sequence (P05067 672-713): as the sequence (P05067 672-713 limits assumed) above

Substance: H-TNPNRRNRTPQMLKR-OH [15merTNP, Thr-Asn-Pro-Asn-Arg-Arg-Asn-Arg-Thr-Pro-Gln-Met-Leu-Lys-Arg, reference compound]
- reduction of human Aβ1-42's H2O2 production (human Aβ1-42 [1]): around 30%
- reduction of cell death associated with human Aβ1-42 (M17 Neuroblastoma cells; 80 μM peptide): 20%
- reduction of cell death associated with human Aβ1-42 (M17 Neuroblastoma cells; 200 μM peptide): 30%
- Stability in rat brain homogenate (in vitro half-life) [2]: <45 min
- half-life at 2.5 mmol per ml ([2]; rat, fresh 10% brain homogenate): < 45 min
- crossing of the blood brain barrier [3]: poorly
- ability to modify Aβ1-42's SOD-like activity (human Aβ1-42 [4]): possessed the ability to modify Aβ1-42's SOD-like activity

Substance: Ac-DArg-DLys-DLeu-DMet-DGln-DPro-DThr-DArg-DAsn-NH2 (Ac-[dR][dK][dL][dM][dQ][dP][dT][dR][dN]-NH2; SMILES CSCC[C@@H](NC(=O)[C@@H](CC(C)C)NC(=O)[C@@H](CCCCN)NC(=O)[C@@H](CCCNC(=N)N)NC(C)=O)C(=O)N[C@H](CCC(N)=O)C(=O)N1CCC[C@@H]1C(=O)N[C@@H](C(=O)N[C@H](CCCNC(=N)N)C(=O)N[C@H](CC(N)=O)C(N)=O)[C@H](C)O) [MP6]
- cell viability following treatment with human Aβ42 (human Aβ42): significantly increased

Substance: human Aβ1-42: beta amyloid peptide used as toxic agent in the cell viability assays [reference compound]
- reduction of cell viability (M17 Neuroblastoma cells; human Aβ1-42 40 μM alone, 4 days): ≤ 35%

Substance: Ac-Arg-Thr-Pro-Gln-Met-Leu-Lys-NH2 (Ac-RTPQMLK-NH2) [MP4]
- inhibition of Aβ oligomer formation (Aβ): most potent

Substance: Ac-Thr-Arg-Thr-Pro-Gln-Met-Leu-Arg-Lys-NH2 (Ac-TRTPQMLRK-NH2) [MP5]
- cell viability following treatment with human Aβ42 (human Aβ42): significantly increased
- inhibition of Aβ oligomer formation (Aβ): most potent

— patent US8492341B2, “Amyloid-β binding peptides” (Alzyme Pty Ltd., priority 2006, dated 2013)
